Source: US5482942A, “(3,4-dioxocyclobuten-1-yl)chromene, indene, and dihydronaphthalenone derivatives as smooth muscle relaxants” (American Home Products Corporation, priority 1994, dated 1996)

Key:
Isolated Rat Bladder = test: Inhibition of contractions in isolated rat bladder strips (bladder smooth muscle relaxing activity); parameters: species or system Sprague-Dawley rats; conditions: 0.5 h, 15 mM KCl-enhanced contractions, 30 min challenge, read-out: IC50 or (% Inhibition of Bladder Contraction at 30 μM)
Experimental: Bladder smooth muscle relaxing activity of the compounds of this invention was established in accordance with standard pharmaceutically accepted test procedures in representative compounds as follows:
Sprague-Dawley rats (150-200 g) are rendered unconscious by CO2 asphyxiation and then euthanized by cervical dislocation. The bladder is removed into warm (37° C.) physiological salt solution (PSS) of the following composition (mM): NaCl, 118.4; KCl, 4.7; CaCl2, 2.5; […]; NaHCO3, 24.9; KH2 PO4, 1.2; glucose, 11.1; EDTA, 0.023; gassed with […]; pH 7.4. The bladder is opened and then cut into strips 1-2 mm in width and 7-10 mm in length. The strips are subsequently suspended in a 10 ml tissue bath under an initial resting tension of 1.5 g. The strips are held in place by two surgical clips one of which is attached to fixed hook while the other is attached to an isometric force transducer. […] The carbachol is then washed out and the tissue allowed to relax to its resting level of activity. Following one further 30 min period of recovery an additional 15 mM KCl are introduced into the tissue bath. […] Contractile activity is measured for each compound or vehicle concentration during the last min of a 30 min challenge. […]

[1] = tested on: Isolated Rat Aortic Tissue; test: Inhibition of contractions in isolated rat aortic rings (aortic smooth muscle relaxing activity); parameters: species or system Sprague-Dawley rats; conditions: isolated rat thoracic aorta rings, 25 mM KCl contracture, cumulative addition; read-out: IC50 or (% Inhibition of Aorta Contraction at 30 μM)
Experimental: Aortic smooth muscle relaxing activity of the compounds of this invention was established in accordance with standard pharmaceutically accepted test procedures in representative compounds as follows:
Sprague-Dawley rats (150-200 g) are rendered unconscious by CO2 asphyxiation and then euthanized by cervical dislocation. The thoracic aorta is removed into warm (37° C.) Krebs-Henseleit solution. The aorta is cleaned of fat and loose adventitia and cut into rings 3-4 mm in width. The rings are subsequently suspended between two stainless steel wire tissue holders in a 10 ml tissue bath. One wire tissue holder is attached to fixed hook while the other is attached to an isometric force transducer. Resting tension is set at 1.0 g. The tissues are allowed to recover for a period of 60 mins prior to beginning the experiment. The tissues are challenged with 25 mM KCl to elicit a contracture. The tissue are then washed repeatedly with fresh Krebs-Henseleit solution over a period of 30 mins and allowed to recover to baseline tension. 25 mM KCl is then introduced into the tissue bath to evoke a contracture that is allowed to stabilize for not less than 45 mins. Increasing concentrations of test compound or vehicle are then added to the tissue bath in a cumulative fashion.
Isometric force developed by the aortic rings is measured using force transducer and recorded on a polygraph. […]

| IC50 (Isolated Rat Bladder) [nM] | IC50 [1] [nM] | Compound |
| --- | --- | --- |
| 390 ± 40 | 150 ± 20 | CC1(C)C=C(c2c(N)c(=O)c2=O)c2cc(C#N)ccc2O1 [Example 2, 4-(2-Amino-3,4-dioxo-cyclobut-1-enyl)-2,2-dimethyl-2H-chromene-6-carbonitrile] |
| 4100 ± 1800 | 560 ± 40 | CNc1c(C2=CC(C)(C)Oc3ccc(C#N)cc32)c(=O)c1=O [Example 3, 2,2-Dimethyl-4-(2-methylamino-3,4-dioxo-cyclobut-1-enyl)-2H-chromene-6-carbonitrile] |
